# Assay: logP(HCOOH) reported with HPLC/MS
# Settings: HCOOH (formic acid), logP(HCOOH), HPLC/MS
row,SMILES,chromatographic logP
1,"Cc1cccc(NC(=O)C(C)(C)C)[n+]1[O-] [2,2-dimethyl-N-(6-methyl-1-oxidopyridin-2-yl)propanamide]",1.5
2,"Cc1cccc(NC(=O)C(C)(C)C)n1 [2,2-dimethyl-N-(6-methylpyridin-2-yl)propanamide]",1.2
3,"Cc1cccc(C2OCCO2)[n+]1[O-] [2-(1,3-dioxolan-2-yl)-6-methylpyridine 1-oxide]",0.45
4,"Cc1cccc(C2OCCO2)n1 [2-(1,3-dioxolan-2-yl)-6-methylpyridine]",1.21
5,"CN(C)c1cccc(C(=NOCc2cccc(N3C(=O)c4ccccc4C3=O)n2)c2nnnn2C)c1 [2-(6-{[({[3-(dimethylamino)phenyl](1-methyl-1H-tetrazol-5-yl)methylene}amino)oxy]methyl}pyridin-2-yl)-1H-isoindole-1,3(2H)-dione]",3.17
6,"O=C1c2ccccc2C(=O)N1Cc1cccc(CCl)n1 [2-{[6-(chloromethyl)pyridin-2-yl]methyl}-1H-isoindole-1,3(2H)-dione]",2.51
7,CON(C)C(=O)c1cccc(N(C)C)c1 [3-(dimethylamino)-N-methoxy-N-methylbenzamide],0.95
8,"CN(C)c1cccc(C(=NO)c2nnnn2C)c1 [3-[(hydroxyimino)(1-methyl-1H-tetrazol-5-yl)methyl]-N,N-dimethylaniline]",1.17
9,"CSc1cccc(C(=NOCc2csc(N)n2)c2nnnn2C)c1 [4-{[({[3-(methylsulfanyl)phenyl](1-methyl-1H-tetrazol-5-yl)methylene}amino)oxy]methyl}-1,3-thiazol-2-amine]",1.76
10,Cc1c(F)ccc(Br)[n+]1[O-] [6-bromo-3-fluoro-2-methylpyridine 1-oxide],0.56
11,CN(C)c1cccc(C(=NOCc2cccc(N)n2)c2nnnn2C)c1 [6-{[({[3-(dimethylamino)phenyl](1-methyl-1H-tetrazol-5-yl)methylene}amino)oxy]methyl}pyridin-2-amine],1.19
12,CSc1cccc(C(=NOCc2cccc(N)n2)c2nnnn2C)c1 [6-{[({[3-(methylsulfanyl)phenyl](1-methyl-1H-tetrazol-5-yl)methylene}amino)oxy]methyl}pyridin-2-amine],1.42
13,"Cc1sc(Br)nc1CO [(2-bromo-5-methyl-1,3-thiazol-4-yl)methanol]",1.1
14,OCc1nc(Br)ccc1F [(6-bromo-3-fluoropyridin-2-yl)methanol],0.92

# Same assay, conditions: HPLC, logP(HCOOH), HPLC/MS
row,SMILES,chromatographic logP
1,"Cc1sc(Br)nc1CBr [2-bromo-4-(bromomethyl)-5-methyl-1,3-thiazole]",2.64

# Same assay, conditions: logP(HCOOH), HPLC/MS
row,SMILES,chromatographic logP
1,"CSc1cccc(C(=NOCc2cccc(N3C(=O)c4ccccc4C3=O)n2)c2nnnn2C)c1 [2-(6-{[({[3-(methylsulfanyl)phenyl](1-methyl-1H-tetrazol-5-yl)methylene}amino)oxy]methyl}pyridin-2-yl)-1H-isoindole-1,3(2H)-dione]",3.39
2,Fc1ccc(Br)nc1CBr [6-bromo-2-(bromomethyl)-3-fluoropyridine],2.58

# Same assay, conditions: method [b]: LC-MS at pH 2.7, 0.1% formic acid in water and acetonitrile, linear gradient 10% to 95% acetonitrile
row,SMILES,log p
1,Cc1nnnn1C(=NOCc1cccc(N=CNC#N)n1)c1ccccc1 [Example 1],2.22^[b]
2,CCN(C)C=Nc1cccc(CON=C(c2ccccc2)n2nnnc2C)n1 [Example 3],1.43^[b]
3,Cc1nnnn1C(=NOCc1cccc(NC(=S)NCc2ccc(Cl)c(Cl)c2)n1)c1ccccc1 [Example 4],4.09^[b]
4,Cc1nnnn1C(=NOCc1cccc(NC(=S)Nc2ccccc2)n1)c1ccccc1 [Example 5],3.31^[b]
5,CCCCCCCCNC(=S)Nc1cccc(CON=C(c2ccccc2)n2nnnc2C)n1 [Example 6],4.97^[b]
6,Cc1nnnn1C(=NOCc1cccc(NC(=S)NCCc2ccccc2)n1)c1ccccc1 [Example 7],3.67^[b]
7,Cc1nnnn1C(=NOCc1cccc(NC(=S)NC2CCCCC2)n1)c1ccccc1 [Example 8],3.81^[b]
8,Cc1nnnn1C(=NOCc1cccc(NC(=S)NC2CCCC2)n1)c1ccccc1 [Example 9],3.53^[b]

# — patent US8466176B2 (priority 2008, dated 2013)
